Experimental data as given in patent US20250213532A1, “5-METHOXY-N,N-[…][…] THE TREATMENT OF BIPOLAR DISORDER” (GH RESEARCH IRELAND LIMITED, priority 2022, published 2025).

How the values were obtained:
[1] = tested on: patients with treatment-resistant major depressive disorder (TRD); test: Phase 1/2 clinical trial of inhaled 5-MeO-DMT in TRD: BPRS; format: in vivo, human; details: for BPRS Emotional Withdrawal percentage improvement / BPRS Emotional Withdrawal score (sum): baseline 13
Source text: The Brief Psychiatric Rating Scale (BPRS) is intended to screen for psychiatric symptoms in a structured fashion. The scale is one of the most widely used scales to measure psychotic symptoms and was first published in 1962. The design has later been updated.
The 18 items (somatic concern, anxiety, emotional withdrawal, conceptual disorganization, guilt feelings, tension, mannerisms and posturing, grandiosity, depressive mood, hostility, suspiciousness, hallucinatory behaviour, motor retardation, uncooperativeness, unusual thought content, blunted affect, excitement and disorientation) are scored and each item is rated on a scale of 1-7.
Based on the answers and the behaviours observed, a physician or psychologist will complete the BPRS form by ranking the severity of each area using a scale of one to seven: a score of one means an absence of signs or symptoms up to a score of seven that means it is present and at a severe level. If it is not possible to rate the specific signs or symptoms, a score of 0 or “Not assessed” is recorded.
Patients were assigned to different groups.
This trial was designed in two parts.

[2] = tested on: patients with clinically diagnosed postpartum depression (PPD); test: Clinical trial of inhaled 5-MeO-DMT in postpartum depression: MADRS; format: in vivo, human; details: one PPD patient; for MADRS Concentration Difficulties improvement / MADRS Concentration Difficulties score / MADRS Reduced appetite improvement / MADRS Reduced appetite score / MADRS Suicidal Thoughts improvement / MADRS Suicidal Thoughts score: baseline 0; for MADRS Inability to Feel improvement / MADRS Inability to Feel score / MADRS Lassitude improvement / MADRS Lassitude score: baseline 3; for MADRS Pessimistic Thoughts improvement / MADRS Pessimistic Thoughts score / MADRS Reported sadness improvement / MADRS Reported sadness score: baseline 4; for MADRS Apparent sadness improvement / MADRS Apparent sadness score / MADRS Inner Tension improvement / MADRS Inner Tension score / MADRS Reduced Sleep improvement / MADRS Reduced Sleep score: baseline 5
Source text: The patient completed all planned visit days.

[3] = 12 mg n=4, 3 hours, baseline 11
[4] = 12 mg n=4, 3 hours, baseline 14
[5] = 12 mg n=4, 3 hours, baseline 18
[6] = 12 mg n=4, 3 hours, baseline 25

## COc1ccc2[nH]cc(CCN(C)C)c2c1 [5-MeO-DMT]
[1]; [3]
  BPRS Blunted Affect percentage improvement: 27%
  BPRS Blunted Affect score (sum): 8
[1]; 12 mg n=4, 3 hours
  BPRS Emotional Withdrawal percentage improvement: 15%
  BPRS Emotional Withdrawal score (sum): 11
[1]; [4]
  BPRS Tension percentage improvement: 36%
  BPRS Tension score (sum): 9
[1]; [5]
  BPRS Guilt Feelings percentage improvement: 50%
  BPRS Guilt Feelings score (sum): 9
[1]; [6]
  BPRS Anxiety percentage improvement: 56%
  BPRS Anxiety score (sum): 11
[1]; 12 mg n=4, Day 1, baseline 11
  BPRS Blunted Affect score (sum): 6
[1]; 12 mg n=4, Day 1
  BPRS Emotional Withdrawal score (sum): 8
[1]; 12 mg n=4, Day 1, baseline 14
  BPRS Tension percentage improvement: 57%
  BPRS Tension score (sum): 6
[1]; 12 mg n=4, Day 1, baseline 18
  BPRS Guilt Feelings percentage improvement: 72%
  BPRS Guilt Feelings score (sum): 5
[1]; 12 mg n=4, Day 1, baseline 25
  BPRS Anxiety percentage improvement: 76%
  BPRS Anxiety score (sum): 6
[1]; 12 mg n=4, Day 7, baseline 11
  BPRS Blunted Affect score (sum): 5
[1]; 12 mg n=4, Day 7
  BPRS Emotional Withdrawal score (sum): 6
[1]; 12 mg n=4, Day 7, baseline 14
  BPRS Tension percentage improvement: 57%
  BPRS Tension score (sum): 6
[1]; 12 mg n=4, Day 7, baseline 18
  BPRS Guilt Feelings percentage improvement: 72%
  BPRS Guilt Feelings score (sum): 5
[1]; 12 mg n=4, Day 7, baseline 25
  BPRS Anxiety percentage improvement: 76%
  BPRS Anxiety score (sum): 6
[1]; IDR n=8, 3 hours
  BPRS Emotional Withdrawal percentage improvement: 38%
  BPRS Emotional Withdrawal score (sum): 8
[1]; IDR n=8, 3 hours, baseline 15
  BPRS Blunted Affect percentage improvement: 27%
  BPRS Blunted Affect score (sum): 11
[1]; IDR n=8, 3 hours, baseline 16
  BPRS Tension percentage improvement: 31%
  BPRS Tension score (sum): 11
[1]; IDR n=8, 3 hours, baseline 34
  BPRS Guilt Feelings percentage improvement: 59%
  BPRS Guilt Feelings score (sum): 14
[1]; IDR n=8, 3 hours, baseline 37
  BPRS Anxiety percentage improvement: 49%
  BPRS Anxiety score (sum): 19
[1]; IDR n=8, Day 1
  BPRS Emotional Withdrawal score (sum): 8
[1]; IDR n=8, Day 1, baseline 15
  BPRS Blunted Affect score (sum): 8
[1]; IDR n=8, Day 1, baseline 16
  BPRS Tension percentage improvement: 31%
  BPRS Tension score (sum): 11
[1]; IDR n=8, Day 1, baseline 34
  BPRS Guilt Feelings percentage improvement: 68%
  BPRS Guilt Feelings score (sum): 11
[1]; IDR n=8, Day 1, baseline 37
  BPRS Anxiety percentage improvement: 57%
  BPRS Anxiety score (sum): 16
[1]; IDR n=8, Day 7
  BPRS Emotional Withdrawal score (sum): 8
[1]; IDR n=8, Day 7, baseline 15
  BPRS Blunted Affect score (sum): 8
[1]; IDR n=8, Day 7, baseline 16
  BPRS Tension percentage improvement: 38%
  BPRS Tension score (sum): 10
[1]; IDR n=8, Day 7, baseline 34
  BPRS Guilt Feelings percentage improvement: 71%
  BPRS Guilt Feelings score (sum): 10
[1]; IDR n=8, Day 7, baseline 37
  BPRS Anxiety percentage improvement: 54%
  BPRS Anxiety score (sum): 17
[2]
  MADRS remission (total score equal or less than 10): fulfilled standard criteria
  MADRS response (at least 50% improvement from baseline): fulfilled standard criteria
[2]; 2 hr
  MADRS Concentration Difficulties improvement: 0
  MADRS Concentration Difficulties score: 0
  MADRS Reduced appetite improvement: 0
  MADRS Reduced appetite score: 0
  MADRS Suicidal Thoughts improvement: 0
  MADRS Suicidal Thoughts score: 0
  MADRS Inability to Feel improvement: 3
  MADRS Inability to Feel score: 0
  MADRS Lassitude improvement: 3
  MADRS Lassitude score: 0
  MADRS Pessimistic Thoughts improvement: 4
  MADRS Pessimistic Thoughts score: 0
  MADRS Reported sadness improvement: 4
  MADRS Reported sadness score: 0
  MADRS Apparent sadness improvement: 5
  MADRS Apparent sadness score: 0
  MADRS Inner Tension improvement: 5
  MADRS Inner Tension score: 0
  MADRS Reduced Sleep improvement: 0
  MADRS Reduced Sleep score: 5
[2]; Day 1
  MADRS Concentration Difficulties improvement: 0
  MADRS Concentration Difficulties score: 0
  MADRS Reduced appetite improvement: 0
  MADRS Reduced appetite score: 0
  MADRS Suicidal Thoughts improvement: 0
  MADRS Suicidal Thoughts score: 0
  MADRS Inability to Feel improvement: 3
  MADRS Inability to Feel score: 0
  MADRS Lassitude improvement: 3
  MADRS Pessimistic Thoughts improvement: 4
  MADRS Pessimistic Thoughts score: 0
  MADRS Reported sadness improvement: 4
  MADRS Reported sadness score: 0
  MADRS Apparent sadness improvement: 5
  MADRS Apparent sadness score: 0
  MADRS Inner Tension improvement: 5
  MADRS Inner Tension score: 0
  MADRS Reduced Sleep improvement: 5
  MADRS Reduced Sleep score: 0
[2]; Day 7
  MADRS Concentration Difficulties improvement: 0
  MADRS Concentration Difficulties score: 0
  MADRS Reduced appetite improvement: 0
  MADRS Reduced appetite score: 0
  MADRS Suicidal Thoughts improvement: 0
  MADRS Suicidal Thoughts score: 0
  MADRS Inability to Feel improvement: 3
  MADRS Inability to Feel score: 0
  MADRS Lassitude improvement: 3
  MADRS Lassitude score: 0
  MADRS Pessimistic Thoughts improvement: 4
  MADRS Pessimistic Thoughts score: 0
  MADRS Reported sadness improvement: 4
  MADRS Reported sadness score: 0
  MADRS Apparent sadness improvement: 5
  MADRS Apparent sadness score: 0
  MADRS Inner Tension improvement: 4
  MADRS Inner Tension score: 1
  MADRS Reduced Sleep improvement: 5
  MADRS Reduced Sleep score: 0
[2]; IDR 6 mg then 12 mg
  Durability of clinical response: sustained over the 7-day follow-up period
  Time to clinical response after administration: ≤ 2 h
